Measurements from patent EP0263213B1, “C20 Through C26 amino steroids” (THE UPJOHN COMPANY, priority 1986, dated 1988).

Legend:
[1] = system: chick embryo; test: fertile egg or chick embryo assay of Folkman (angiogenesis); assay type: in vivo; settings: 50 »g/10 »l in the presence of heparin
Excerpt: According to this procedure compounds which are considered to be "active" (i.e. antiangiogenic) give an avascular zone of 4 mm or greater in some embryos when tested at 50 »g/10 »l in the presence of 50 »g/10 » of heparin.

[2] = system: mucous secretion; test: inhibition of mucous secretion assay of Johnson; settings: active = inhibits or blocks enhancement of induced mucous secretions
Excerpt: The inhibition of mucous secretion assay of Johnson Int. […] According to this procedure compounds which inhibit or block enhancement of induced mucous secretions when tested are considered to be "active".

[3] = system: rat brain synaptosomes; test: Conjugated Diene Formation Assay; assay type: biochemical; settings: active = inhibits conjugated diene formation by 50% or more; 100 »M (or less) of drug, 100 »M hydrogen peroxide, 200 »M ferrous ammonium sulfate
Excerpt: The formation of conjugated dienes as assayed by Braughler, J. Neurochem., 44, 1282 (1985), Bucher, Fund. Applied Tox., 3, 222 (1983) and Tein, Arch. Biochem. Biophy., 216, 142 (1982) is a standard pharmacological laboratory procedure useful for identifying compounds which inhibit lipid peroxidation. Since lipid peroxidation is involved in the pathophysiology of central nervous system trauma, compounds which inhibit conjugated diene formation are useful in treating the conditions listed below.
44, 1282 (1985). Synaptosomal suspension (10 »l) is added to 1 ml of physiological (normal) saline containing 1 % Lubrol PX (Sigma Chemical Co. St. Louis, Mo.), 100 »M hydrogen peroxide and 100 »M (or less) of the drug to be tested prepared in either absolute ethanol or water depending upon solubility. The reaction is started by the rapid addition of 200 »M ferrous ammonium sulfate is prepared in argon-purged water. The sample is rapidly mixed and the change in absorbance at 232nm is followied in a Gilford Response Spectrophotometer equipped with a rapid sampler. Due to the rapidity of the reaction, rapid addition of the iron, rapid mixing and sampling are obligatory to the accuracy of the assay. For best results absorbance readings of one/sec should be started within 5 sec following the addition of iron. The initial linear rate of absorbance change during the first 30 sec of reaction are compared with the rate of a reaction containing all reagents except synaptosomes. The difference in rates is the rate of conjugated diene formation. Rates with drug are compared to rates obtained in the absence of drug and the % inhibition is calculated. A compound that inhibits conjugated diene formation by 50% or more is considered to be "active".

[4] = system: arachidonic acid; test: Arachidonic Acid Antagonism Assay (AAAA); assay type: in vivo; settings: active = elevates the LD50 of sodium arachidonate outside the 95% confidence interval of the control LD50; test compound IV 15 minutes before; male CF-1 mice
Description: Since these metabolites contribute to the pathological problems associated with stroke, spinal trauma and head injury, compounds which antagonize arachidonic acid are useful in treating stroke, spinal trauma and head injury.
While not necessary to determine arachidonic acid antagonism, the above assay has been modified as follows: Charles River male CF-1 mice weighing 18-22g are treated IV with the test compound dissolved in 1.0% Tween-80 and 0.1% hydrochloric acid in distilled water, 0.2 ml total volume. Fifteen minutes later sodium arachidonate (90% pure) in physiological (normal) saline is injected into the tail vein. The LD₅₀ is measured using the Spearman-Karber method with a log dose interval of 0.05 (N=6). Compounds which elevate the LD₅₀ outside of the 95% confidence interval of the control LD₅₀ are considered to be "active".

[5] = system: SEA Japanese Quail; test: Antiatherosclerosis Screen in SEA Japanese Quail; assay type: in vivo; settings: quail fed an atherogenic diet; active = decrease of serum or arterial cholesterol > 30 %
[6] = system: ACAT; test: AcylCoA:Cholesterol Acyltransferase (ACAT) Inhibition Assay; assay type: cell-based; settings: for inhibiting ACAT: active = inhibits ACAT activity equal to, or greater than, that of chlorpromazine
Excerpt: ACAT esterifies arterial cholesterol which is a key reaction in the development of atherosclerosis. The procedure of Bell, Can. […] In the ACAT assay it is preferred to use Fu5AH cells, see Lipids 9, 526 (1974). According to this procedure, compounds which inhibit ACAT activity equal to, or greater than, that of chlorpromazine are considered "active".

[7] = system: aspirin/cold induced ulcer; test: aspirin/cold induced ulcer assay of Rainsford; assay type: in vivo; settings: active = 50% or more reduction of ulcer index
Excerpt: According to this procedure compounds which give a 50% or more reduction of ulcer index are considered to be "active".

[8] = system: mouse head injury; test: in vivo mouse head injury procedure of Hall (1 hr post-injury grip test); settings: 1 hr after head injury, statistically significant (p < 0.05)
[9] = system: rat brain synaptosomes; test: Malonyldialdehyde (MDA) Formation Assay; assay type: biochemical; settings: active = inhibits MDA formation by 50% or more at 200»M or less; 10 min at 37°, pH 7.0, 150 uM Fe+++ and 50 uM Fe++
Description: Since lipid peroxidation is involved in the pathophysiology of central nervous system trauma, compounds which inhibit MDA formation are useful in treating the conditions listed below.
While not necessary to determine MDA formation, the above assays have been modified as follows: rat brain synaptosomes are prepared as described in the Example about the conjugated diene assay, except that the final wash of the synaptosomes and final suspension are in physiological (normal) saline in which the pH has been adjusted to 7.0. The synaptosomes are incubated for 10 min at 37° in physiological (normal) saline pH 7.0 (total volume = 100 ul) containing; 10 ul synaptosomal suspension, 10% DMSO plus or minus drug, 150 uM Fe⁺⁺⁺ and 50 uM Fe++. The incubation is started by the rapid addition of iron to the otherwise complete reaction. The iron solutions are prepared fresh as ferric chloride and ferrous ammonium sulfate in argon-purged water. Following the 10 min incubation, the reaction is stopped by the addition of 500 ul ice-cold 12% trichloroacetic acid prepared in 0.5 N hydrochoric acid. Water (300 ul) is then added along with 100 ul of freshly prepared thiobarbituric acid (3.3% in 0.5N sodium hydroxide) and 10 ul of 5mM desferrioxamine. The sample is then heated in a boiling water bath for 20 minutes. The samples are cooled and centrifuged for 15 minutes at 1500 xg and the absorbance of the supernatant fraction is read at 532 nm. The % inhibition of MDA formation is calculated by dividing the absorbance of sample containing drug by the absorbance of samples incubated without drug. Reaction blanks are samples incubated in the absence of iron. A compound that inhibits MDA formation by 50% or more at a concentration of 200»M or less is considered "active".

[10] = system: interleukin-1; test: inhibition of interleukin-1 induced T cell proliferation assay; assay type: cell-based; settings: for % Inhibition at 10⁻⁶ M: interleukin-1 induced T cell proliferation
Excerpt: The inhibition of interleukin-1 induced T cell proliferation assay, Proc. Nat. […] Since people with arthritis make excess interleukin 1, compounds which inhibit the activity of interleukin 1 are useful in the treatment of arthritis. According to this procedure compounds which inhibit the activity of interleukin 1 greater that 30% at 10⁻⁶ M are considered to be "active".

Compound: 11α,17α-Dihydroxy-21-[4-(2-pyridinyl)-1-piperazinyl]pregn-4-ene-3,20-dione 11-(3,3-dimethyl-1-butyrate dihydrochloride [Example 28]
- % of Embryos with 4 mm or Greater Avascular Zone [1]: 73%

Compound: CS(=O)(=O)O.C[C@]12CCC(=O)C=C1CC[C@@H]1C2=CC[C@@]2(C)[C@H]1CC[C@]2(O)C(=O)CN1CCN(c2ccccn2)CC1 [Example 2, 17α-Hydroxy-21-[4-(2-pyridinyl)-1-piperazinyl]pregna-4,9(11)-diene-3,20-dione methanesulfonate]
- inhibition of mucous secretion ([2]; methanesulfonate): preferred mucous inhibitors
- inhibition of conjugated diene formation [3]: demonstrate such activity by inhibition of conjugated dienes
- arachidonic acid antagonism [4]: demonstrate arachidonic acid antagonism

Compound: C[C@]12CCC(=O)C=C1CC[C@@H]1C2=CC[C@@]2(C)[C@H]1CC[C@]2(O)C(=O)CN1CCN(c2ccccn2)CC1.Cl [Example 3, 17α-Hydroxy-21-[4-(2-pyridinyl)-1-piperazinyl]pregna-4,9(11)-diene-3,20-dione hydrogen chloride salt]
- reduction of serum and arterial cholesterol [5]: demonstrates reduction of serum and arterial cholesterol
- % Inhibition of ACAT (5 »g/ml) [6]: 63.9%
- inhibiting ACAT [6]: active in inhibiting ACAT

Compound: CN(C)c1cc(N2CCN(CC(=O)[C@@]3(O)CC[C@H]4[C@@H]5CCC6=CC(=O)CC[C@]6(C)C5=CC[C@@]43C)CC2)nc(N(C)C)n1.Cl.Cl.O [Example 16, 17α-Hydroxy-21-[4-[2,6-bis(dimethylamino)-4-pyrimidinyl]-1-piperazinyl]pregna-4,9(11)-diene-3,20-dione dihydrochloride hydrate]
- inhibition of mucous secretion [2]: demonstrate such activity
- % of Embryos with 4 mm or Greater Avascular Zone [1]: 91%
- anti-ulcer activity [7]: demonstrates anti-ulcer activity

Compound: CCN(CC)c1cc(N2CCN(CC(=O)[C@@]3(O)[C@H](C)C[C@H]4[C@@H]5CCC6=CC(=O)C=C[C@]6(C)C5=CC[C@@]43C)CC2)nc(N(CC)CC)n1.Cl.O [Example 18, 21-[4-[2,6-Bis(diethylamino)-4-pyrimidinyl]-1-piperazinyl]-17α-hydroxy-16α-methylpregna-1,4,9(11)-triene-3,20-dione hydrochloride hydrate]
- % Increase in 1 hr Post-Injury Grip Test Scores After 3 mg/kg [8]: 112.6%
- % Inhibition of ACAT (5 »g/ml) [6]: 48.4%
- inhibiting ACAT [6]: active in inhibiting ACAT

Compound: CS(=O)(=O)O.CS(=O)(=O)O.C[C@@H]1C[C@H]2[C@@H]3CCC4=CC(=O)C=C[C@]4(C)C3=CC[C@]2(C)[C@H]1C(=O)CN1CCN(c2cc(N3CCCC3)nc(N3CCCC3)n2)CC1 [Example 83, 16α-Methyl-21-[4-[2,6-bis(pyrrolidino)-4-pyrimidyl]-1-piperazinyl]pregna-1,4,9(11)-triene-3,20-dione dimethane-sulfonate]
- inhibition of MDA formation [9]: demonstrate such activity by inhibition of MDA formation
- % Increase in 1 hr Post-Injury Grip Test Scores After 3 mg/kg [8]: 134.5%
- inhibition of mucous secretion [2]: preferred mucous inhibitors
- inhibition of conjugated diene formation [3]: demonstrate such activity by inhibition of conjugated dienes
- % Inhibition at 10⁻⁶ M [10]: 62%

Compound: C[C@@H]1C[C@H]2[C@@H]3CCC4=CC(=O)C=C[C@]4(C)C3=CC[C@]2(C)[C@H]1C(=O)CN1CCN(c2cc(N3CCOCC3)nc(N3CCOCC3)n2)CC1 [Example 86]
- inhibition of MDA formation [9]: demonstrate such activity by inhibition of MDA formation
- inhibition of conjugated diene formation [3]: demonstrate such activity by inhibition of conjugated dienes
- % Inhibition at 10⁻⁶ M [10]: 84%

Compound: C[C@]12CCC(=O)C=C1CC[C@@H]1C2=CC[C@@]2(C)[C@H]1CC[C@]2(O)C(=O)CN1CCN(c2cc(N3CCOCC3)nc(N3CCOCC3)n2)CC1.Cl.Cl.O [Example 105, 21-[4-(2,6-Bis(4-morpholinyl)-4-pyrimidinyl)-1-piperazinyl]-17α-hydroxypregna-4,9(11)-diene-3,20-dione dihydrochloride, hydrate]
- inhibition of mucous secretion ([2]; dihydrochloride, hydrate): preferred mucous inhibitors
- % Inhibition at 10⁻⁶ M [10]: 76%

Compound: CCN(CC)c1ccc(N2CCN(CC(=O)[C@H]3CC[C@H]4[C@@H]5CCC6=CC(=O)C=C[C@]6(C)[C@H]5CC[C@]34C)CC2)nc1N(CC)CC.Cl.Cl [Example 120]
- inhibition of MDA formation [9]: demonstrate such activity by inhibition of MDA formation
- % Inhibition at 10⁻⁶ M [10]: 56%
- inhibition of interleukin 1 ([10]; active = inhibits the activity of interleukin 1 greater than 30% at 10⁻⁶ M): demonstrate inhibition of interleukin 1
